Blank lines part the entries; values can stand above or below the compound they belong to.
Legend:
[1] = Cmax in human at 100 to 300 mg, po QD after 24 hrs; type: ADME, organism-based; conditions: in vivo
[2] = Drug concentration at steady state in human at 100 to 300 mg, po QD after 24 hrs; type: ADME, organism-based; conditions: in vivo, read-out: Css
[3] = biological target: ATP-binding cassette sub-family C member 2 (Homo sapiens, UniProt Q92887); test: Inhibition of human MRP2 overexpressed in Sf9 cell membrane vesicles assessed as uptake of [3H]-estradiol-17beta-D-glucuronide in presence of ATP and GSH measured after 20 mins by membrane vesicle transport assay
ATP-binding cassette sub-family C member 2, sequence (Q92887 whole entry): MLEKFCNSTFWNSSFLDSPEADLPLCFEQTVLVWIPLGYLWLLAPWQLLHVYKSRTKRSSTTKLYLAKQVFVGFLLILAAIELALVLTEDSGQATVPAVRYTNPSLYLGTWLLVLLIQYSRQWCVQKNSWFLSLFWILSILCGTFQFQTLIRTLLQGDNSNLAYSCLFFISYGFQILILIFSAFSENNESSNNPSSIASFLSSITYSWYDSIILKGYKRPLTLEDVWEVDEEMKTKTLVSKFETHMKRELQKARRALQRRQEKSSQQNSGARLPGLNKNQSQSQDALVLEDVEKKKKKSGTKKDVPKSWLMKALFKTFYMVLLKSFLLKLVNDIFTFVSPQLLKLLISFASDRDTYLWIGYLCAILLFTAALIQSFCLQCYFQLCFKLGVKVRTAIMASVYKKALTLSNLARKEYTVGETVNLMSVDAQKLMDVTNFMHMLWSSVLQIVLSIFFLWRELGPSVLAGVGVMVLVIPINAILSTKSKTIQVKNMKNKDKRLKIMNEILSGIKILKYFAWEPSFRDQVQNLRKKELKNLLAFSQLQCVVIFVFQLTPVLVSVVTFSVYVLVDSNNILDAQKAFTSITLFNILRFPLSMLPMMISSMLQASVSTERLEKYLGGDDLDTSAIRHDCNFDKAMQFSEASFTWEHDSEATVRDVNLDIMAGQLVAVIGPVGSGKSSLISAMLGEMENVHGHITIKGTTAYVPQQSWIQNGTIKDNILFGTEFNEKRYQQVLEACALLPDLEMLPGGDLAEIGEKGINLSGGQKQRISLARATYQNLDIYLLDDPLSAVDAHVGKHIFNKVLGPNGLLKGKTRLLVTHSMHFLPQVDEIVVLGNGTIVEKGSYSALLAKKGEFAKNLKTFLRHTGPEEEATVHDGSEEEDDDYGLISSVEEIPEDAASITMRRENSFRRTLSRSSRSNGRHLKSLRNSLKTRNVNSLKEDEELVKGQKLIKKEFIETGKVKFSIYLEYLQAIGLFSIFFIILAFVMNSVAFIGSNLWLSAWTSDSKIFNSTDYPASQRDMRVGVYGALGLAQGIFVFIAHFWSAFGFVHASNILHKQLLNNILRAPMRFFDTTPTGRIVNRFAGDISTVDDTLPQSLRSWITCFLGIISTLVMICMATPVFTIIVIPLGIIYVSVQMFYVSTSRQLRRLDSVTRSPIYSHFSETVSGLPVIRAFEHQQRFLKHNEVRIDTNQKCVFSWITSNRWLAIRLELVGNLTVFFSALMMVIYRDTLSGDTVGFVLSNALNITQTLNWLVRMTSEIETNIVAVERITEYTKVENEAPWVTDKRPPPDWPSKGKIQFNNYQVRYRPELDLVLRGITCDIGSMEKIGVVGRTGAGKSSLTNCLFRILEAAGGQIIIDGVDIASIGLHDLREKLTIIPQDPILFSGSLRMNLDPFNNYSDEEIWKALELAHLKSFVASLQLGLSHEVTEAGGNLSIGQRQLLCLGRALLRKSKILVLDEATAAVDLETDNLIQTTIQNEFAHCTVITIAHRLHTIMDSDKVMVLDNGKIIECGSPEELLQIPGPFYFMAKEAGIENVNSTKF

[4] = biological target: ATP-binding cassette sub-family C member 3 (Homo sapiens, UniProt O15438); test: Inhibition of human MRP3 overexpressed in Sf9 insect cell membrane vesicles assessed as uptake of [3H]-estradiol-17beta-D-glucuronide in presence of ATP and GSH measured after 10 mins by membrane vesicle transport assay; type: ADME, cell-based
ATP-binding cassette sub-family C member 3, sequence (O15438 whole entry): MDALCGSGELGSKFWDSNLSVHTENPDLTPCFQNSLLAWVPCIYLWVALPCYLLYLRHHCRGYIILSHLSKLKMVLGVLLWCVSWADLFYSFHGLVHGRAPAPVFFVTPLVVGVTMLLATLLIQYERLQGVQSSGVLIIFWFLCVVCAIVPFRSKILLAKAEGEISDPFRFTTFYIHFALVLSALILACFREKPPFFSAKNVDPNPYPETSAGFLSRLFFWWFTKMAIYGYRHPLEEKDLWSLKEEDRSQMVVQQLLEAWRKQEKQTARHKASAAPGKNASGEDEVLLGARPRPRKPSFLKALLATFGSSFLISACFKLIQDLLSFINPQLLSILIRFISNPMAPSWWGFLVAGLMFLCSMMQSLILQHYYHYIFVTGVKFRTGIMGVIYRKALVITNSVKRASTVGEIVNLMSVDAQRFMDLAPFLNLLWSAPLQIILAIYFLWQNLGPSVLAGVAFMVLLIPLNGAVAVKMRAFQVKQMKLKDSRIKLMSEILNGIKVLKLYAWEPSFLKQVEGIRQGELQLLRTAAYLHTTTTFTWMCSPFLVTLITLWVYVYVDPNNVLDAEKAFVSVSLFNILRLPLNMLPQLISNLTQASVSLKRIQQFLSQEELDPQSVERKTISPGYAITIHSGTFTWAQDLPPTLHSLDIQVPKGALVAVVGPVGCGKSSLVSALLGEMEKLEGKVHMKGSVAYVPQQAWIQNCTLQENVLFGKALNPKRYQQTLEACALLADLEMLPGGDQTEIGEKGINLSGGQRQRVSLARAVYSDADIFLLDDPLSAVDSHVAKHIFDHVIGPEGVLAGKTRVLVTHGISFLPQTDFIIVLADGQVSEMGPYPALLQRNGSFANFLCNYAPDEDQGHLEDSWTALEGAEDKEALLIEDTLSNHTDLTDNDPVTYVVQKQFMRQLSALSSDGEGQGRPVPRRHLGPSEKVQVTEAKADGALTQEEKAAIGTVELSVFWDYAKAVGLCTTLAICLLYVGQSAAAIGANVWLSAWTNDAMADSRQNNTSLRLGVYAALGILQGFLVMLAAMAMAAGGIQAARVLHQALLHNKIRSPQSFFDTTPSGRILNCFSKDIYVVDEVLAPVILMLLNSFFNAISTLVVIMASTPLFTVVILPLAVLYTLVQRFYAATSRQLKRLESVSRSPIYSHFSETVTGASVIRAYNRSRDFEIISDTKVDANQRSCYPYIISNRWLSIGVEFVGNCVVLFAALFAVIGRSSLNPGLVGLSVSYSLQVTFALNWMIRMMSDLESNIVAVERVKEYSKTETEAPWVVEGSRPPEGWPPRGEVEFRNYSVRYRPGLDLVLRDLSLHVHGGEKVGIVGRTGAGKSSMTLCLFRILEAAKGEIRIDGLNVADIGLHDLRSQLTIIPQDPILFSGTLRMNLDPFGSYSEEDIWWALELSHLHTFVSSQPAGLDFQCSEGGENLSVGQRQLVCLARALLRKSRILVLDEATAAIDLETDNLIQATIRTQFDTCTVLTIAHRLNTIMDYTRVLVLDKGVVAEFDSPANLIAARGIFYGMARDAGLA

[5] = Ratio of drug concentration at steady state in human at 100 to 300 mg, po QD after 24 hrs to IC50 for human MRP3 overexpressed in Sf9 insect cells; type: ADME, organism-based; conditions: in vivo
[6] = Ratio of drug concentration at steady state in human at 100 to 300 mg, po QD after 24 hrs to IC50 for human MRP2 overexpressed in Sf9 insect cells; type: ADME, organism-based; conditions: in vivo
[7] = Ratio of drug concentration at steady state in human at 100 to 300 mg, po QD after 24 hrs to IC50 for human MRP4 overexpressed in Sf9 insect cells; type: ADME, organism-based; conditions: in vivo
[8] = Ratio of drug concentration at steady state in human at 100 to 300 mg, po QD after 24 hrs to IC50 for human BSEP overexpressed in Sf9 insect cells; type: ADME, organism-based; conditions: in vivo
[9] = biological target: T1, ATP-binding cassette sub-family C member 4 (Homo sapiens, UniProt O15439); test: Inhibition of human MRP4 overexpressed in Sf9 cell membrane vesicles assessed as uptake of [3H]-estradiol-17beta-D-glucuronide in presence of ATP and GSH measured after 20 mins by membrane vesicle transport assay; type: ADME, cell-based
T1 sequence (O15439 whole entry): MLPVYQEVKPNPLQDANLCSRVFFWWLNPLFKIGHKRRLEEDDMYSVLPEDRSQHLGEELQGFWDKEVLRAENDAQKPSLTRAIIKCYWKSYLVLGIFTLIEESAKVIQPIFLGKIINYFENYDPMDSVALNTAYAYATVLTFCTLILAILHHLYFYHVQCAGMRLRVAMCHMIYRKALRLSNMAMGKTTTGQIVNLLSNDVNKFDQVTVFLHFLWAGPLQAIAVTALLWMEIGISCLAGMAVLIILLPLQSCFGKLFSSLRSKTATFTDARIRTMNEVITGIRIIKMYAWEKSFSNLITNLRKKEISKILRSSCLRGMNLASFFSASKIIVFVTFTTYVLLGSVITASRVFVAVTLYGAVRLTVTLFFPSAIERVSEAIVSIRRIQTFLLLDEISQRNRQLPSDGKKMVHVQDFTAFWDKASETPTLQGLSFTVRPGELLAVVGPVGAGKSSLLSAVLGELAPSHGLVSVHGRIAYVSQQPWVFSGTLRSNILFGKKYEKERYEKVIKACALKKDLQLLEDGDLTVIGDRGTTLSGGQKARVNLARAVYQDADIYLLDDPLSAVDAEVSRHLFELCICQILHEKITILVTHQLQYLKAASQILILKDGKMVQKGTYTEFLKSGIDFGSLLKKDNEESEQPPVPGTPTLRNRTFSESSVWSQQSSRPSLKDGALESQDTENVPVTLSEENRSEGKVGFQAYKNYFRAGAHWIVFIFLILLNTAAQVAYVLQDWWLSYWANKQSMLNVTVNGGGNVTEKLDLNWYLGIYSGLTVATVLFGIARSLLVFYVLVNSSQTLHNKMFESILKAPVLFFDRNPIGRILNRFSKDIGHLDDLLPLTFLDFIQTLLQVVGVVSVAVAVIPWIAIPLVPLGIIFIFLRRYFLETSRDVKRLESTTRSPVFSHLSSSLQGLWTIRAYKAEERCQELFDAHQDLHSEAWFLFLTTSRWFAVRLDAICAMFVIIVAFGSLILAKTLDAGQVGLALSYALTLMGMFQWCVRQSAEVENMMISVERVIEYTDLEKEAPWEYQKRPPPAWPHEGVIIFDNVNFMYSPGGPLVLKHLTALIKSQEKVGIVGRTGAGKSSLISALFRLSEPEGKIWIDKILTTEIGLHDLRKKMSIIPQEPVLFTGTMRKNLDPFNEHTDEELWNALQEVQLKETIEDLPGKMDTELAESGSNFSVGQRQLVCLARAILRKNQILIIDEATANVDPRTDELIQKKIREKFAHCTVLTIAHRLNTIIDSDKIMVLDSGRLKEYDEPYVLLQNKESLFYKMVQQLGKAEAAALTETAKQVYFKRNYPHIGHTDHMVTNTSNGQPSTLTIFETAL

[10] = AUC in patient with chronic phase CML at 70 to 90 mg, po BID after 12 hrs; type: ADME, organism-based; conditions: human, in vivo
[11] = Ratio of drug concentration at steady state in patient with advanced phase CML and Ph+ ALL at 100 mg, po BID after 12 hrs to IC50 for human BSEP overexpressed in Sf9 insect cells; type: ADME, organism-based; conditions: in vivo
[12] = Ratio of drug concentration at steady state in patient with advanced phase CML and Ph+ ALL at 100 mg, po BID after 12 hrs to IC50 for human MRP4 overexpressed in Sf9 insect cells; type: ADME, organism-based; conditions: in vivo
[13] = Drug concentration at steady state in patient with chronic phase CML at 70 to 90 mg, po BID after 12 hrs; type: ADME, organism-based; conditions: human, in vivo, read-out: Css
[14] = biological target: Bile salt export pump (Homo sapiens, UniProt O95342); test: Inhibition of human BSEP overexpressed in Sf9 cell membrane vesicles assessed as uptake of [3H]-taurocholate in presence of ATP measured after 15 to 20 mins by membrane vesicle transport assay; type: ADME, cell-based
Bile salt export pump, sequence (O95342 whole entry): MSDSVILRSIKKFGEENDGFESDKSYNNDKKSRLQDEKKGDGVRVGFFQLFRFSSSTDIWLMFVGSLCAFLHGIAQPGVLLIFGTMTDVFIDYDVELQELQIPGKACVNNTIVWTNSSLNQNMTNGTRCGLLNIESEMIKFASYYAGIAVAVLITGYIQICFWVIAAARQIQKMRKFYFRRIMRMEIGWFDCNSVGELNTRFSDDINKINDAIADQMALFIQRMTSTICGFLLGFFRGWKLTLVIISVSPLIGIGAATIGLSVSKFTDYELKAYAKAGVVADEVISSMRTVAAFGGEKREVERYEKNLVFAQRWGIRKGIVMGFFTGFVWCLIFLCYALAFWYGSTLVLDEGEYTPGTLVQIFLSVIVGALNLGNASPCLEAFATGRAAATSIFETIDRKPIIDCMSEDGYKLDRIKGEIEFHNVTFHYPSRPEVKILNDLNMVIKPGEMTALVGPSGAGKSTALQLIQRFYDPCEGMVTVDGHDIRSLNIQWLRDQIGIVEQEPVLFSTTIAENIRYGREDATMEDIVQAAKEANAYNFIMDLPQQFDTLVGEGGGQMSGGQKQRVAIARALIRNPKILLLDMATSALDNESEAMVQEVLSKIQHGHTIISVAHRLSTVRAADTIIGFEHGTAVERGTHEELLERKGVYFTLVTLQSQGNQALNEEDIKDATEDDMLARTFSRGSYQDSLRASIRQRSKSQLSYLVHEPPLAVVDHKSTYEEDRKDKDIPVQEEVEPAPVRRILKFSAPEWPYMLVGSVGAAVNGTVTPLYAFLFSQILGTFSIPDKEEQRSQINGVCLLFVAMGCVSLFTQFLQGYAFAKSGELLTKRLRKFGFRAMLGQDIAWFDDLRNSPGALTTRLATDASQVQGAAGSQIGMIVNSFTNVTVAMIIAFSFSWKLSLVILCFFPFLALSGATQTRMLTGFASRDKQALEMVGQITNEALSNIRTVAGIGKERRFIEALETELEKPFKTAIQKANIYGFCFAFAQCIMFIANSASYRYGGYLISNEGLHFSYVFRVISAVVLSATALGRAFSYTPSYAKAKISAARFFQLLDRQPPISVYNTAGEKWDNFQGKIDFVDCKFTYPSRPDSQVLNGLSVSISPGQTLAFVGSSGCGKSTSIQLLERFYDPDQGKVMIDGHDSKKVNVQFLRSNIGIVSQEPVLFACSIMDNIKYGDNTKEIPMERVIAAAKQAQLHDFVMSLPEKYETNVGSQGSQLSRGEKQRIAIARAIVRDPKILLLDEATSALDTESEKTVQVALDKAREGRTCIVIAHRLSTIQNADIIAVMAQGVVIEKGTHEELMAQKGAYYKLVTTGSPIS

[15] = Ratio of drug concentration at steady state in patient with chronic phase CML at 70 to 90 mg, po BID after 12 hrs to IC50 for human BSEP overexpressed in Sf9 insect cells; type: ADME, organism-based; conditions: in vivo
[16] = Ratio of drug concentration at steady state patient with chronic phase CML at 70 to 90 mg, po BID after 12 hrs to IC50 for human MRP4 overexpressed in Sf9 insect cells; type: ADME, organism-based; conditions: in vivo
[17] = Drug concentration at steady state in patient with advanced phase CML and Ph+ ALL at 100 mg, po BID after 12 hrs; type: ADME, organism-based; conditions: human, in vivo, read-out: Css
[18] = AUC in patient with advanced phase CML and Ph+ ALL at 100 mg, po BID after 12 hrs; type: ADME, organism-based; design: dose 100 mg, time < 12 hr, route oral; conditions: human, in vivo
[19] = Ratio of drug concentration at steady state in human at 20 to 40 mg, iv QD after 24 hrs to IC50 for human BSEP overexpressed in Sf9 insect cells; type: ADME, organism-based; conditions: in vivo
[20] = AUC in human at 20 to 40 mg, iv QD after 24 hrs; type: ADME, organism-based; conditions: in vivo
[21] = tested on: Homo sapiens; test: Drug concentration at steady state in human at 20 to 40 mg, iv QD after 24 hrs; type: ADME, organism-based; conditions: in vivo
[22] = AUC in human at 5 to 10 mg, po after 24 hrs; type: ADME, organism-based; conditions: in vivo
[23] = tested on: Homo sapiens; test: Drug concentration at steady state in human at 5 to 10 mg, po after 24 hrs; conditions: in vivo
[24] = Drug concentration at steady state in human at 800 mg administered once per week for 6 weeks through intravesical instillation measured after 6 hrs; type: ADME; conditions: in vivo, read-out: Css
[25] = Ratio of drug concentration at steady state in human at 800 mg administered once per week for 6 weeks through intravesical instillation measured after 6 hrs to IC50 for human BSEP overexpressed in Sf9 insect cells; type: ADME; conditions: in vivo, other
[26] = Ratio of drug concentration at steady state in human at 800 mg administered once per week for 6 weeks through intravesical instillation measured after 6 hrs to IC50 for human MRP4 overexpressed in Sf9 insect cells; type: ADME; conditions: in vivo, other
[27] = Ratio of drug concentration at steady state in human at 800 mg administered once per week for 6 weeks through intravesical instillation measured after 6 hrs to IC50 for human MRP3 overexpressed in Sf9 insect cells; type: ADME; conditions: in vivo, other
[28] = AUC (0 to 6 hrs) in human at 800 mg administered once per week for 6 weeks through intravesical instillation measured after 6 hrs; type: ADME; design: dose 800 mg, time < 6 hr; conditions: in vivo
[29] = Ratio of drug concentration at steady state in human at 800 mg administered once per week for 6 weeks through intravesical instillation measured after 6 hrs to IC50 for human MRP2 overexpressed in Sf9 insect cells; type: ADME; conditions: in vivo, other

Cmax [1]: 2.11 ng/mL
concentration at 24 h [2]: 88 nM
IC50 [3]: 10.4 µM
IC50 [4]: 21 µM
Ratio [5]: 0.004
Ratio [6]: 0.008
Ratio [7]: 0.002
IC50 [9]: 44.5 µM
Structure (SMILES): CC(C)/N=c1\cc2n(-c3ccc(Cl)cc3)c3ccccc3nc-2cc1Nc1ccc(Cl)cc1 [CLOFAZIMINE]
Ratio [8]: 0.007

Structure (SMILES): Cc1nc(Nc2ncc(C(=O)Nc3c(C)cccc3Cl)s2)cc(N2CCN(CCO)CC2)n1.O [DASATINIB]
IC50 [3]: > 133 µM
AUC at 12 h [10]: 0.624 µM·h
IC50 [4]: > 133 µM
Ratio [11]: 0.004
Ratio [12]: 0.002
concentration at 12 h [13]: 52 nM
IC50 [14]: 13.1 µM
Ratio [15]: 0.004
IC50 [9]: 27.3 µM
Ratio [16]: 0.002
concentration at 12 h [17]: 52 nM
AUC at 12 h [18]: 0.624 µM·h

IC50 [3]: > 133 µM
IC50 [4]: > 133 µM
IC50 [9]: > 133 µM
AUC at 24 h [20]: 11.2 µM·h
Css [21]: 468.2 nM
Structure (SMILES): COc1ccc2[nH]c([S+]([O-])Cc3ncc(C)c(OC)c3C)nc2c1 (stereo not drawn) [OMEPRAZOLE]
IC50 [14]: 99 µM
Ratio [19]: 0.005

Structure (SMILES): COc1cc2c(cc1OC)C(=O)C(CC1CCN(Cc3ccccc3)CC1)C2 (stereo not drawn) [DONEPEZIL]
AUC at 24 h [22]: 9.76 µM·h
IC50 [3]: > 133 µM
IC50 [4]: > 133 µM
Css [23]: 406 nM
IC50 [9]: 72.9 µM

concentration at 6 h [24]: 131 nM
IC50 [3]: 64 µM
Ratio [26]: 0.004
IC50 [4]: 76.3 µM
Ratio [27]: 0.002
AUC at 6 h [28]: 0.788 µM·h
Ratio [29]: 0.002
IC50 [9]: 36.8 µM
Structure (SMILES): CCCCC(=O)OCC(=O)[C@]1(O)Cc2c(O)c3c(c(O)c2[C@@H](O[C@H]2C[C@H](NC(=O)C(F)(F)F)[C@H](O)[C@H](C)O2)C1)C(=O)c1c(OC)cccc1C3=O [VALRUBICIN]
Ratio [25]: 0.005
IC50 [14]: 24.1 µM

Source: ChEMBL document CHEMBL4028801, “A multifactorial approach to hepatobiliary transporter assessment enables improved therapeutic compound development” (Toxicol Sci, 2013)
